Key:
AZD4320 = compound: CN(CC[C@H](CSC1=CC=CC=C1)NC2=C(C=C(C=C2)S(=O)(=O)NC(=O)C3=CC=C(C=C3)N4CCC(CC4)[C@H](C5=CC=CC=C5C6=CC=C(C=C6)Cl)O)S(=O)(=O)C(F)(F)F)CCO [AZD4320]; conditions: max 1 µM
Procedure, shortened: (§1)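 Cancer cell lines were seeded into 1536-well plates in 7.5 μl medium (DMEM/F12 or RPMI, 10% FBS), held 24 hours at 37°C and 5% CO2, and dosed for 72 hours with final DMSO typically 0.2%. Luminescence from CellTiter-Glo 2.0, scaled between blank-well and DMSO-well means, served as viability. The single-agent IC50 was obtained from dose-response fits with a non-linear mixed effects model, each fit being a two-parameter logistic curve.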

Lapatinib = compound: CS(=O)(=O)CCNCc1ccc(-c2ccc3ncnc(Nc4ccc(OCc5cccc(F)c5)c(Cl)c4)c3c2)o1 [Lapatinib]; conditions: max 10 µM
Procedure, shortened: as §1

AZD7648 = compound: Cc1cc2ncnn2cc1Nc1ncc2c(n1)n(C1CCOCC1)c(=O)n2C [AZD7648]; conditions: max 10 µM
Procedure, shortened: as §1

Palbociclib = compound: CC(=O)c1c(C)c2cnc(Nc3ccc(N4CCNCC4)cn3)nc2n(C2CCCC2)c1=O [Palbociclib]; conditions: max 10 µM
Procedure, shortened: as §1

AZD1390 = compound: CC(C)n1c(=O)n(C)c2cnc3cc(F)c(-c4ccc(OCCCN5CCCCC5)nc4)cc3c21 [AZD1390]; conditions: max 0.3 µM
Procedure, shortened: as §1

Crizotinib = compound: C[C@@H](Oc1cc(-c2cnn(C3CCNCC3)c2)cnc1N)c1c(Cl)ccc(F)c1Cl [Crizotinib]; conditions: max 10 µM
Procedure, shortened: as §1

AZD5363 = compound: C1CN(CCC1(C(=O)N[C@@H](CCO)C2=CC=C(C=C2)Cl)N)C3=NC=NC4=C3C=CN4 [AZD5363]; conditions: max 10 µM
Procedure, shortened: as §1

Alisertib = compound: COc1cc(Nc2ncc3c(n2)-c2ccc(Cl)cc2C(c2c(F)cccc2OC)=NC3)ccc1C(=O)O [Alisertib]; conditions: max 10 µM
Procedure, shortened: as §1

SN-38 = compound: CCc1c2c(nc3ccc(O)cc13)-c1cc3c(c(=O)n1C2)COC(=O)[C@]3(O)CC [SN-38]; conditions: max 0.3 µM
Procedure, shortened: as §1

AZD1775 = compound: C=CCn1c(=O)c2cnc(Nc3ccc(N4CCN(C)CC4)cc3)nc2n1-c1cccc(C(C)(C)O)n1 [AZD1775]; conditions: max 3 µM
Procedure, shortened: as §1

AZD5153 = compound: COc1nnc2ccc(N3CCC(c4ccc(OCCN5CCN(C)C(=O)[C@H]5C)cc4)CC3)nn12 [AZD5153]; conditions: max 1 µM
Procedure, shortened: as §1

[1] = compound: O=C(Nc1ccc2[nH]nc(-c3ccncc3)c2c1)[C@@H]1CCN(CC(=O)N2CCN(c3ccc(-c4ncccn4)cc3)CC2)C1; conditions: max 5 µM
Procedure, shortened: as §1

AZD8186 = compound: C[C@@H](Nc1cc(F)cc(F)c1)c1cc(C(=O)N(C)C)cc2c(=O)cc(N3CCOCC3)oc12 [AZD8186]; conditions: max 10 µM
Procedure, shortened: as §1

Prexasertib = compound: COc1cccc(OCCCN)c1-c1cc(Nc2cnc(C#N)cn2)n[nH]1 [Prexasertib]; conditions: max 1 µM
Procedure, shortened: as §1

AZD6738 = compound: C[C@@H]1COCCN1C2=NC(=NC(=C2)C3(CC3)[S@](=N)(=O)C)C4=C5C=CNC5=NC=C4 [AZD6738]; conditions: max 10 µM
Procedure, shortened: as §1

AZD0156 = compound: CN(C)CCCOc1ccc(-c2ccc3ncc4c(c3c2)n(C2CCOCC2)c(=O)n4C)cn1 [AZD0156]; conditions: max 3 µM
Procedure, shortened: as §1

Doxorubicin = compound: COc1cccc2c1C(=O)c1c(O)c3c(c(O)c1C2=O)C[C@@](O)(C(=O)CO)C[C@@H]3O[C@H]1C[C@H](N)[C@H](O)[C@H](C)O1 [Doxorubicin]; conditions: max 1 µM
Procedure, shortened: as §1

Paclitaxel = compound: CC(=O)O[C@H]1C(=O)[C@@]2(C)[C@H]([C@H](OC(=O)c3ccccc3)[C@]3(O)C[C@H](OC(=O)[C@H](O)[C@@H](NC(=O)c4ccccc4)c4ccccc4)C(C)=C1C3(C)C)[C@]1(OC(C)=O)CO[C@@H]1C[C@@H]2O [Paclitaxel]; conditions: max 3 µM
Procedure, shortened: as §1

AZD2811 = compound: CCN(CCO)CCCOc1ccc2c(Nc3cc(CC(=O)Nc4cccc(F)c4)[nH]n3)ncnc2c1 [AZD2811]; conditions: max 1 µM
Procedure, shortened: as §1

AZD5991 = compound: Cc1c2c(nn1C)CSCc1cc(n(C)n1)CSc1cc(c3ccccc3c1)OCCCc1c(C(=O)O)n(C)c3c-2c(Cl)ccc13 [AZD5991]; conditions: max 1 µM
Procedure, shortened: as §1

Trametinib = compound: CC(=O)Nc1cccc(-n2c(=O)n(C3CC3)c(=O)c3c(Nc4ccc(I)cc4F)n(C)c(=O)c(C)c32)c1 [Trametinib]; conditions: max 1 µM
Procedure, shortened: as §1

5-Fluorouracil = compound: O=c1[nH]cc(F)c(=O)[nH]1 [5-Fluorouracil]; conditions: max 20 µM
Procedure, shortened: as §1

Savolitinib = compound: C[C@@H](c1ccc2nccn2c1)n1nnc2ncc(-c3cnn(C)c3)nc21 [Savolitinib]; conditions: max 1 µM
Procedure, shortened: as §1

Olaparib = compound: O=C(c1cc(Cc2n[nH]c(=O)c3ccccc23)ccc1F)N1CCN(C(=O)C2CC2)CC1 [Olaparib]; conditions: max 10 µM
Procedure, shortened: as §1

Taselisib = compound: Cc1nc(-c2cn3c(n2)-c2ccc(-c4cnn(C(C)(C)C(N)=O)c4)cc2OCC3)n(C(C)C)n1 [Taselisib]; conditions: max 10 µM
Procedure, shortened: as §1

Etoposide = compound: COc1cc([C@@H]2c3cc4c(cc3[C@@H](O[C@@H]3O[C@@H]5CO[C@@H](C)O[C@H]5[C@H](O)[C@H]3O)[C@H]3COC(=O)[C@H]23)OCO4)cc(OC)c1O [Etoposide]; conditions: max 10 µM
Procedure, shortened: as §1

Dasatinib = compound: CC1=C(C(=CC=C1)Cl)NC(=O)C2=CN=C(S2)NC3=CC(=NC(=N3)C)N4CCN(CC4)CCO [Dasatinib]; conditions: max 2 µM
Procedure, shortened: as §1

Selumetinib = compound: Cn1cnc2c(F)c(Nc3ccc(Br)cc3Cl)c(C(=O)NOCCO)cc21 [Selumetinib]; conditions: max 10 µM
Procedure, shortened: as §1

Gefitinib = compound: COc1cc2ncnc(Nc3ccc(F)c(Cl)c3)c2cc1OCCCN1CCOCC1 [Gefitinib]; conditions: max 10 µM
Procedure, shortened: as §1

SRA737 = compound: N#Cc1cnc(Nc2cc(NC[C@H]3CNCCO3)c(C(F)(F)F)cn2)cn1 [SRA737]; conditions: max 10 µM
Procedure, shortened: as §1

Carboplatin = compound: C1CC(C1)(C(=O)[O-])C(=O)[O-].N.N.[Pt+2] [Carboplatin]; conditions: max 10 µM
Procedure, shortened: as §1

SG3199 = compound: CC1=CN2[C@@H](C1)C=NC3=CC(=C(C=C3C2=O)OC)OCCCCCOC4=C(C=C5C(=C4)N=C[C@@H]6CC(=CN6C5=O)C)OC [SG3199]; conditions: max 0.001 µM
Procedure, shortened: as §1

MK-2206 = compound: NC1(c2ccc(-c3nc4ccn5c(=O)[nH]nc5c4cc3-c3ccccc3)cc2)CCC1 [MK-2206]; conditions: max 10 µM
Procedure, shortened: as §1

Venetoclax = compound: CC1(C)CCC(CN2CCN(c3ccc(C(=O)NS(=O)(=O)c4ccc(NCC5CCOCC5)c([N+](=O)[O-])c4)c(Oc4cnc5[nH]ccc5c4)c3)CC2)=C(c2ccc(Cl)cc2)C1 [Venetoclax]; conditions: max 1 µM
Procedure, shortened: as §1

Gemcitabine = compound: Nc1ccn([C@@H]2O[C@H](CO)[C@@H](O)C2(F)F)c(=O)n1 [Gemcitabine]; conditions: max 0.3 µM
Procedure, shortened: as §1

MS-1 (Small Cell Lung Carcinoma)
IC50, cell viability 72 h (AZD4320): > 1 µM
IC50, cell viability 72 h (Lapatinib): > 10 µM
IC50, cell viability 72 h (AZD7648): > 10 µM
IC50, cell viability 72 h (Palbociclib): > 10 µM
IC50, cell viability 72 h (AZD1390): > 0.3 µM
IC50, cell viability 72 h (Crizotinib): 6.28 µM
IC50, cell viability 72 h (AZD5363): > 10 µM
IC50, cell viability 72 h (Alisertib): > 10 µM
IC50, cell viability 72 h (SN-38): 0.0577 µM
IC50, cell viability 72 h (AZD1775): 0.531 µM
IC50, cell viability 72 h (AZD5153): 0.12 µM
IC50, cell viability 72 h [1]: > 5 µM
IC50, cell viability 72 h (AZD8186): > 10 µM
IC50, cell viability 72 h (Prexasertib): 0.022 µM
IC50, cell viability 72 h (AZD6738): 4.38 µM
IC50, cell viability 72 h (AZD0156): > 3 µM
IC50, cell viability 72 h (Doxorubicin): 0.244 µM
IC50, cell viability 72 h (Paclitaxel): 0.104 µM
IC50, cell viability 72 h (AZD2811): > 1 µM
IC50, cell viability 72 h (AZD5991): > 1 µM
IC50, cell viability 72 h (Trametinib): > 1 µM
IC50, cell viability 72 h (5-Fluorouracil): > 20 µM
IC50, cell viability 72 h (Savolitinib): > 1 µM
IC50, cell viability 72 h (Olaparib): > 10 µM
IC50, cell viability 72 h (Taselisib): > 10 µM
IC50, cell viability 72 h (Etoposide): 7.2 µM
IC50, cell viability 72 h (Dasatinib): > 2 µM
IC50, cell viability 72 h (Selumetinib): > 10 µM
IC50, cell viability 72 h (Gefitinib): > 10 µM
IC50, cell viability 72 h (SRA737): 9.42 µM
IC50, cell viability 72 h (Carboplatin): > 10 µM
IC50, cell viability 72 h (SG3199): > 0.001 µM
IC50, cell viability 72 h (MK-2206): > 10 µM
IC50, cell viability 72 h (Venetoclax): > 1 µM
IC50, cell viability 72 h (Gemcitabine): 0.197 µM

NCI-H3118 (Head and Neck Carcinoma)
IC50, cell viability 72 h (AZD4320): > 1 µM
IC50, cell viability 72 h (Lapatinib): 4.49 µM
IC50, cell viability 72 h (AZD7648): > 10 µM
IC50, cell viability 72 h (Palbociclib): > 10 µM
IC50, cell viability 72 h (AZD1390): > 0.3 µM
IC50, cell viability 72 h (Crizotinib): > 10 µM
IC50, cell viability 72 h (AZD5363): > 10 µM
IC50, cell viability 72 h (Alisertib): > 10 µM
IC50, cell viability 72 h (SN-38): 0.277 µM
IC50, cell viability 72 h (AZD1775): 0.191 µM
IC50, cell viability 72 h (AZD5153): 0.684 µM
IC50, cell viability 72 h [1]: 0.912 µM
IC50, cell viability 72 h (AZD8186): > 10 µM
IC50, cell viability 72 h (Prexasertib): 0.0393 µM
IC50, cell viability 72 h (AZD6738): > 10 µM
IC50, cell viability 72 h (AZD0156): > 3 µM
IC50, cell viability 72 h (Doxorubicin): > 1 µM
IC50, cell viability 72 h (Paclitaxel): 0.015 µM
IC50, cell viability 72 h (AZD2811): > 1 µM
IC50, cell viability 72 h (AZD5991): > 1 µM
IC50, cell viability 72 h (Trametinib): 0.12 µM
IC50, cell viability 72 h (5-Fluorouracil): > 20 µM
IC50, cell viability 72 h (Savolitinib): > 1 µM
IC50, cell viability 72 h (Olaparib): > 10 µM
IC50, cell viability 72 h (Taselisib): 1.06 µM
IC50, cell viability 72 h (Etoposide): 5.67 µM
IC50, cell viability 72 h (Dasatinib): 0.309 µM
IC50, cell viability 72 h (Selumetinib): 3.09 µM
IC50, cell viability 72 h (Gefitinib): 1.97 µM
IC50, cell viability 72 h (SRA737): > 10 µM
IC50, cell viability 72 h (Carboplatin): > 10 µM
IC50, cell viability 72 h (SG3199): > 0.001 µM
IC50, cell viability 72 h (MK-2206): > 10 µM
IC50, cell viability 72 h (Venetoclax): > 1 µM
IC50, cell viability 72 h (Gemcitabine): 0.0641 µM

T84 (Colorectal Carcinoma)
IC50, cell viability 72 h (AZD4320): > 1 µM
IC50, cell viability 72 h (Lapatinib): > 10 µM
IC50, cell viability 72 h (AZD7648): > 10 µM
IC50, cell viability 72 h (Palbociclib): > 10 µM
IC50, cell viability 72 h (AZD1390): > 0.3 µM
IC50, cell viability 72 h (Crizotinib): > 10 µM
IC50, cell viability 72 h (AZD5363): > 10 µM
IC50, cell viability 72 h (Alisertib): > 10 µM
IC50, cell viability 72 h (SN-38): 0.131 µM
IC50, cell viability 72 h (AZD1775): 1.31 µM
IC50, cell viability 72 h (AZD5153): > 1 µM
IC50, cell viability 72 h [1]: > 5 µM
IC50, cell viability 72 h (AZD8186): > 10 µM
IC50, cell viability 72 h (Prexasertib): 0.0897 µM
IC50, cell viability 72 h (AZD6738): 6.78 µM
IC50, cell viability 72 h (AZD0156): > 3 µM
IC50, cell viability 72 h (Doxorubicin): > 1 µM
IC50, cell viability 72 h (Paclitaxel): 0.548 µM
IC50, cell viability 72 h (AZD2811): > 1 µM
IC50, cell viability 72 h (AZD5991): > 1 µM
IC50, cell viability 72 h (Trametinib): 0.804 µM
IC50, cell viability 72 h (5-Fluorouracil): > 20 µM
IC50, cell viability 72 h (Savolitinib): > 1 µM
IC50, cell viability 72 h (Olaparib): > 10 µM
IC50, cell viability 72 h (Taselisib): 4.66 µM
IC50, cell viability 72 h (Etoposide): > 10 µM
IC50, cell viability 72 h (Dasatinib): > 2 µM
IC50, cell viability 72 h (Selumetinib): > 10 µM
IC50, cell viability 72 h (Gefitinib): > 10 µM
IC50, cell viability 72 h (SRA737): 4.61 µM
IC50, cell viability 72 h (Carboplatin): > 10 µM
IC50, cell viability 72 h (SG3199): > 0.001 µM
IC50, cell viability 72 h (MK-2206): > 10 µM
IC50, cell viability 72 h (Venetoclax): > 1 µM
IC50, cell viability 72 h (Gemcitabine): 0.276 µM

Source: the supplement of paper PMC11061612
